Experimental data as given in patent publication US7235536B2, “Cellulose sulfate and other sulfated polysaccharides to prevent and treat papilloma virus infection and other infections” (Rush Presbyterian-St. Luke's Medical Center, priority 2000, dated 2007).
Where “and” joins values, the source holds several entries; their conditions need not be identical. Equal entries are not always repeated. Where two headings read alike, the source gives them in different places. Marks after values point to notes of the source that are not given here.

Experiments:
[1] = system: Peptostreptococcus asaccharolyticus; assay: Broth method MIC; type: cell-based; settings: for CS MIC: Broth (study 2)
HPV-11 = assay: RT-PCR ELISA for transient infection of human A431 cells, HPV-11; type: cell-based, human papilloma virus; settings: with virus (HPV-11)
Protocol: Cellulose sulfate and dextran sulfate were each prepared as a 2 mg/ml solution in 0.9% NaCl and tested for microbicidal activity using the in vitro HPV transient infection assay originally described by Smith and colleagues (Smith, L. H., C. Foster, M. E. Hitchcock, and R. Isseroff. 1993. In vitro HPV-11 infection of human foreskin. J. Invest. Dermatol. 101:292-295) with some modifications (Ludmerer, S. W., W. L. McClements, X. M. Wang, J. C. Ling, K. U. Jansen, and N. D. Christensen. 2000. HPV11 mutant virus-like parties elicit immune responses that neutralize virus and delineate a novel neutralizing domain. Virology 266:237-245). An ELISA-based read-out of Optical Density (OD) values using alkaline phosphatase cleavage of the substrate p-nitrophenyl phosphate was also used to measure HPV infection as described below.
A modification of the RT-PCR assay that incorporates an ELISA-based read-out (Boehringer-Mannheim) was also included to assess microbicidal activity. Replicate cell cultures of A431 cells were infected with an aliquot of infectious HPV virions as described above. After 4 days of culture, cells were harvested and RNA extracted. RNA was subjected to RT using downstream anti-sense (reverse) primers for HPV-11 or HPV-40 and β-actin (as a control/housekeeping cellular transcript) to initiate cDNA synthesis. The cDNA was processed through 2 sets of 30 cycles of PCR amplification using nested primers: the second set of cycles used digoxygenin (DIG)-dUTP to label the PCR products with DIG. DIG-labeled PCR products were denatured then renatured together with a biotinylated oligonucleotide specific for the targeted PCR product. Biotinylated products were detected in ELISA with plates coated with streptavidin (to capture the biotinylated target PCR product) then anti-DIG antibody and substrate. Labeled PCR products were added directly to ELISA plates, or titrated at 10-fold dilutions in duplicate for each cell culture for each virus dilution.

Fusobacterium nucleatum [2] = assay: Broth method MIC; type: cell-based; settings: for CS MIC: Broth (study 2)
Prevotella intermedia = assay: Broth method MIC; type: cell-based; settings: for CS MIC: Broth (study 2)
[3] = system: Bovine Papillomavirus type I; assay: BPV cell focus formation assay (Tables A, B); type: cell-based, bovine papilloma virus
Protocol: Cellulose sulfate was tested for its ability to inhibit BPV infection by cell focus formation assay (see Hermonat et al. (1992) for a description of this assay). Cellulose sulfate from Dextran Products Limited (Lot 80971 in the form of sodium cellulose sulfate, known as Ushercell J.) was mixed with BPV type I (obtained from bovine fibropapillomas) prior to adding the virus to mouse fibroblast line […] cells or mixed with these host cells first prior to adding the virus. In one molecular weight study, the Mr range of cellulose sulfate was about 750 to 20.3 million, with an average Mr of about 1.01 million. […] In another study, the average molecular weight was determined to be about 1.9 million with a peak Mr of about 2.3 million. Unless otherwise specified, the Mr is in daltons. The assay was repeated using different concentrations of cellulose sulfate and the results are shown below.

[4] = system: Peptostreptococcus magnus
trichomonas vaginalis = assay: Inhibition of Trichomonas growth, live count; type: cell-based; settings: for number of live trichomonas: 5 mg/ml
Protocol: The inhibitory effect of CS on trichomonas vaginalis, protozoa known to cause vaginitis, is shown below. The organisms were grown in modified Diamond's medium. CS was mixed with the organism in modified Diamond's medium at a final concentration of about 5 mg/ml (5.12 mg/ml) and incubated anaerobically at 35° C. Samples were collected at various time points and the number of live trichomonas counted with a hemacytomer. The same procedure was performed in the absence of CS. The volume of the inoculum was varied as indicated in the Tables to study the effect of increasing amounts of the organism on the results.

Fusobacterium nucleatum [5] = system: Fusobacterium nucleatum
[6] = system: Bacteroides thetaiotaomicron; assay: Broth method MIC; type: cell-based
[7] = system: Fusobacterium gonidiaformans; assay: Broth method MIC; type: cell-based; settings: for CS MIC: Broth (study 2)

sodium cellulose sulfate
growth inhibition ([1]; all strains): inhibited
CS MIC ([1]; rma# 11587): 10000 µg/mL
CS MIC ([1]; rma# 11607): 10000 µg/mL
Mean (SD) of O.D. reading for RT-PCR ELISA, HPV-11 probe (HPV-11; 10 μg/ml at viral pretreatment): 1.485 (0.045) O.D.
Mean (SD) of O.D. reading for RT-PCR ELISA, HPV-11 probe (HPV-11; 100 μg/ml at viral pretreatment): 0.049 (0.001) O.D.
Mean (SD) of O.D. reading for RT-PCR ELISA, HPV-11 probe (HPV-11; 1000 μg/ml at viral pretreatment): 0.038 (0.001) O.D.
growth inhibition (Fusobacterium nucleatum [2]; both strains, broth method): inhibited
CS MIC (Fusobacterium nucleatum [2]; rma# 10481): 5000 µg/mL
CS MIC (Fusobacterium nucleatum [2]; rma# 11518): 10000 µg/mL
growth inhibition (Prevotella intermedia; all strains): inhibited
CS MIC (Prevotella intermedia; rma# 11142): 10000 µg/mL
CS MIC (Prevotella intermedia; rma# 11168): 10000 µg/mL
inhibition of infection ([3]; 40 μg/ml, mixed first with the virus): partial inhibition
inhibition of infection ([3]; 40 μg/ml, pre-incubated with host cells): Complete inhibition
inhibition of infection ([3]; 200 ug/ml, pre-incubated with the virus before addition to the host cells): almost complete inhibition
formation of oncogenic foci by the virus ([3]; 500 μg/ml, mixed with the virus or with the host cells): completely inhibited
Viral-induced foci per culture ([3]; Table A, 5.0 μg/ml, pre-incubated with host cells prior to addition to virus): 72 foci per culture and 60 foci per culture
Viral-induced foci per culture ([3]; Table A, 5.0 μg/ml, pre-incubated with virus prior to addition to host cells): 121 foci per culture and 97 foci per culture
Viral-induced foci per culture ([3]; Table A, 50 μg/ml, pre-incubated with host cells prior to addition to virus): 10 foci per culture and 12 foci per culture
Viral-induced foci per culture ([3]; Table A, 50 μg/ml, pre-incubated with virus prior to addition to host cells): 37 foci per culture and 32 foci per culture
Viral-induced foci per culture ([3]; Table A, 500 μg/ml, pre-incubated with host cells prior to addition to virus): 0^A foci per culture and 0 foci per culture
Viral-induced foci per culture ([3]; Table A, 500 μg/ml, pre-incubated with virus prior to addition to host cells): 0^A foci per culture and 0 foci per culture
Viral-induced foci per culture ([3]; Table A, 5000 μg/ml, pre-incubated with host cells prior to addition to virus): 0^B foci per culture and 0 foci per culture
Viral-induced foci per culture ([3]; Table A, 5000 μg/ml, pre-incubated with virus prior to addition to host cells): 0^B foci per culture and 0 foci per culture
Viral-induced foci per culture ([3]; Table B, 1.6 μg/ml, pre-incubated with virus prior to addition to host cells): 196 foci per culture and 168 foci per culture
Viral-induced foci per culture ([3]; Table B, 8.0 μg/ml, pre-incubated with host cells prior to addition to virus): 5 foci per culture and 3 foci per culture
Viral-induced foci per culture ([3]; Table B, 40 μg/ml, pre-incubated with host cells prior to addition to virus): 0 foci per culture
Viral-induced foci per culture ([3]; Table B, 40 μg/ml, pre-incubated with virus prior to addition to host cells): 116 foci per culture and 104 foci per culture
Viral-induced foci per culture ([3]; Table B, 200 μg/ml, pre-incubated with host cells prior to addition to virus): 0 foci per culture
Viral-induced foci per culture ([3]; Table B, 200 μg/ml, pre-incubated with virus prior to addition to host cells): 34 foci per culture and 42 foci per culture
CS MIC [4]: >0.625** mg/ml
growth of the trichomonas culture (trichomonas vaginalis; 5 mg/ml CS): Complete inhibition of growth
number of live trichomonas (trichomonas vaginalis; 16 hr, 50 μl Trich): 0 organisms per ml
number of live trichomonas (trichomonas vaginalis; 16 hr, 100 μl Trich): 0 organisms per ml
number of live trichomonas (trichomonas vaginalis; 16 hr, 200 μl Trich): 0 organisms per ml
number of live trichomonas (trichomonas vaginalis; 16 hr, 400 μl Trich): 0 organisms per ml
number of live trichomonas (trichomonas vaginalis; 24 hr, 50 μl Trich): 0 organisms per ml
number of live trichomonas (trichomonas vaginalis; 24 hr, 100 μl Trich): 0 organisms per ml
number of live trichomonas (trichomonas vaginalis; 24 hr, 200 μl Trich): 0 organisms per ml
number of live trichomonas (trichomonas vaginalis; 24 hr, 400 μl Trich): 0 organisms per ml
number of live trichomonas (trichomonas vaginalis; 40 hr, 50 μl Trich): 0 organisms per ml
number of live trichomonas (trichomonas vaginalis; 40 hr, 100 μl Trich): 0 organisms per ml
number of live trichomonas (trichomonas vaginalis; 40 hr, 200 μl Trich): 0 organisms per ml
number of live trichomonas (trichomonas vaginalis; 40 hr, 400 μl Trich): 0 organisms per ml
number of live trichomonas (trichomonas vaginalis; 48 hr, 50 μl Trich): 0 organisms per ml
number of live trichomonas (trichomonas vaginalis; 48 hr, 100 μl Trich): 0 organisms per ml
number of live trichomonas (trichomonas vaginalis; 48 hr, 200 μl Trich): 0 organisms per ml
number of live trichomonas (trichomonas vaginalis; 48 hr, 400 μl Trich): 0 organisms per ml
CS MIC (Fusobacterium nucleatum [5]): >0.625** mg/ml
CS MIC ([6]; ATCC (first listed), Broth (study 1)): NI (not inhibited by 10 mg/ml (the highest concentration tested))
CS MIC ([6]; ATCC (first listed), Broth (study 2)): NI (not inhibited by 10 mg/ml (the highest concentration tested))
CS MIC ([6]; ATCC (second listed), Broth (study 2)): 10000 µg/mL
growth inhibition ([6]; at the concentrations tested): One strain of Bacteroides thetaiotaomicron was inhibited but three others were not
CS MIC ([6]; rma# 11604, Broth (study 2)): NI (not inhibited by 10 mg/ml (the highest concentration tested))
CS MIC ([6]; rma# 11651, Broth (study 2)): NI (not inhibited by 10 mg/ml (the highest concentration tested))
growth inhibition ([7]; both strains, broth method): inhibited
CS MIC ([7]; rma# 11423): 5000 µg/mL
CS MIC ([7]; rma# 11653): 5000 µg/mL
